{"source": "paper PMC8019204", "about": "(Cancer Science, 2021)", "key": {"[1]": {"system": "MET‐amplified NSCLC"}, "[2]": {"test": "GEOMETRY mono-1: safety", "format": "in vivo, human"}, "[3]": {"details": "2/3L, cohort 1a GCN ≥ 10 (n = 11)"}, "[4]": {"details": "2/3L, cohort 1b GCN ≥ 6 to <10 (n = 1)"}, "[5]": {"details": "2/3L, cohort 2 GCN ≥ 4 to <6 (n = 10)"}}, "note": "Like-named read-outs stand apart in the source and are kept apart here.", "data": [{"smiles": "CNC(=O)c1ccc(-c2cnc3ncc(Cc4ccc5ncccc5c4)n3n2)cc1F", "note": "[capmatinib, Capmatinib]", "values": [{"measurement": "Median DOR", "setting": "[1]; 1L, cohort 5a GCN ≥ 10", "result": 8.2, "unit": "months"}, {"measurement": "ORR (BIRC)", "setting": "[1]; 1L, cohort 5a GCN ≥ 10 (n = 2)", "result": 100, "unit": "%"}, {"measurement": "Median DOR", "setting": "[1]; 2/3L, cohort 1a GCN ≥ 10", "result": 8.3, "unit": "months"}, {"measurement": "DCR (BIRC)", "setting": "[1]; [3]", "result": 81.8, "unit": "%"}, {"measurement": "ORR (BIRC)", "setting": "[1]; [3]", "result": 45.5, "unit": "%"}, {"measurement": "DCR (BIRC)", "setting": "[1]; [4]", "result": 100.0, "unit": "%"}, {"measurement": "ORR (BIRC)", "setting": "[1]; [4]", "result": 0, "unit": "%"}, {"measurement": "Median DOR", "setting": "[1]; 2/3L, cohort 2 GCN ≥ 4 to <6", "result": 9.7}, {"measurement": "DCR (BIRC)", "setting": "[1]; [5]", "result": 50.0, "unit": "%"}, {"measurement": "ORR (BIRC)", "setting": "[1]; [5]", "result": 10, "unit": "%"}, {"measurement": "DCR (BIRC)", "setting": "[1]; 2/3L, cohort 3 GCN < 4 (n = 6)", "result": 66.7, "unit": "%"}, {"measurement": "ORR (BIRC)", "setting": "[1]; 2/3L, cohort 3 GCN < 4 (n = 6)", "result": 16.7, "unit": "%"}, {"measurement": "Treatment‐related AE: Nausea", "setting": "[2]; 45 Japanese patients", "result": 35.6, "unit": "%"}, {"measurement": "Treatment‐related AE: Oedema peripheral", "setting": "[2]; 45 Japanese patients", "result": 31.1, "unit": "%"}, {"measurement": "Treatment‐related AE: blood creatinine increased", "setting": "[2]; 45 Japanese patients", "result": 53.3, "unit": "%"}, {"measurement": "Capmatinib interrupted due to AEs", "setting": "[2]; METΔex14 1L group (n = 2)", "result": "both"}, {"measurement": "Discontinuation from treatment phase, reason: Adverse event", "setting": "[2]; METΔex14 1L group (n = 2)", "result": "1 (50.0) n (%) of patients"}, {"measurement": "Capmatinib interrupted due to AEs", "setting": "[2]; METΔex14 2/3L group (n = 11)", "result": 10, "unit": "patients"}, {"measurement": "Discontinuation from treatment phase, reason: Adverse event", "setting": "[2]; METΔex14 2/3L group (n = 11)", "result": "3 (27.3) n (%) of patients"}, {"measurement": "Dose reductions due to AEs", "setting": "[2]; METΔex14 2/3L group (n = 11)", "result": "eight"}, {"measurement": "AEs leading to permanent discontinuation", "setting": "[2]; all patients (n = 45)", "result": "8 (17.8) n (%) of patients"}, {"measurement": "AEs requiring dose adjustment/interruption", "setting": "[2]; all patients (n = 45)", "result": "30 (66.7) n (%) of patients"}, {"measurement": "Any AE", "setting": "[2]; all patients (n = 45)", "result": "45 (100.0) n (%) of patients"}, {"measurement": "Any grade 3/4 AE", "setting": "[2]; all patients (n = 45)", "result": "33 (73.3) n (%) of patients"}, {"measurement": "Any grade 3/4 serious AE", "setting": "[2]; all patients (n = 45)", "result": "18 (40.0) n (%) of patients"}, {"measurement": "Any serious AE", "setting": "[2]; all patients (n = 45)", "result": "22 (48.9) n (%) of patients"}, {"measurement": "Any treatment‐related grade 3/4 serious AE", "setting": "[2]; all patients (n = 45)", "result": "9 (20.0) n (%) of patients"}, {"measurement": "Any treatment‐related serious AE", "setting": "[2]; all patients (n = 45)", "result": "12 (26.7) n (%) of patients"}, {"measurement": "Grade 3/4 AEs leading to permanent discontinuation", "setting": "[2]; all patients (n = 45)", "result": "4 (8.9) n (%) of patients"}, {"measurement": "Grade 3/4 AEs requiring dose adjustment/interruption", "setting": "[2]; all patients (n = 45)", "result": "22 (48.9) n (%) of patients"}, {"measurement": "Any grade 3/4 treatment‐related AE", "setting": "[2]; all patients (n = 45), Table 4", "result": "25 (55.6) n (%) of patients"}, {"measurement": "Any treatment‐related AE", "setting": "[2]; all patients (n = 45), Table 4", "result": "44 (97.8) n (%) of patients"}, {"measurement": "Deaths", "setting": "[2]; all patients (n = 45), considered related to NSCLC", "result": "1 (2.2) n (%) of patients"}, {"measurement": "Treatment‐related AE (investigations): ALT increased", "setting": "[2]; any grade, n = 45", "result": "6 (13.3) n (%) of patients"}, {"measurement": "Treatment‐related AE (investigations): AST increased", "setting": "[2]; any grade, n = 45", "result": "6 (13.3) n (%) of patients"}, {"measurement": "Treatment‐related AE (investigations): Amylase increased", "setting": "[2]; any grade, n = 45", "result": "8 (17.8) n (%) of patients"}, {"measurement": "Treatment‐related AE (investigations): Blood ALP increased", "setting": "[2]; any grade, n = 45", "result": "4 (8.9) n (%) of patients"}, {"measurement": "Treatment‐related AE (investigations): Blood creatinine increased", "setting": "[2]; any grade, n = 45", "result": "24 (53.3) n (%) of patients"}, {"measurement": "Treatment‐related AE (investigations): Lipase increased", "setting": "[2]; any grade, n = 45", "result": "6 (13.3) n (%) of patients"}, {"measurement": "Treatment‐related AE (investigations): Neutrophil count decreased", "setting": "[2]; any grade, n = 45", "result": "5 (11.1) n (%) of patients"}, {"measurement": "Treatment‐related AE (investigations): Platelet count decreased", "setting": "[2]; any grade, n = 45", "result": "8 (17.8) n (%) of patients"}, {"measurement": "Treatment‐related AE (investigations): WBC count decreased", "setting": "[2]; any grade, n = 45", "result": "4 (8.9) n (%) of patients"}, {"measurement": "Treatment‐related AE (investigations): γGT increased", "setting": "[2]; any grade, n = 45", "result": "3 (6.7) n (%) of patients"}, {"measurement": "Treatment‐related AE: Anaemia", "setting": "[2]; any grade, n = 45", "result": "3 (6.7) n (%) of patients"}, {"measurement": "Treatment‐related AE: Cellulitis", "setting": "[2]; any grade, n = 45", "result": "3 (6.7) n (%) of patients"}, {"measurement": "Treatment‐related AE: Constipation", "setting": "[2]; any grade, n = 45", "result": "5 (11.1) n (%) of patients"}, {"measurement": "Treatment‐related AE: Decreased appetite", "setting": "[2]; any grade, n = 45", "result": "10 (22.2) n (%) of patients"}, {"measurement": "Treatment‐related AE: Diarrhoea", "setting": "[2]; any grade, n = 45", "result": "8 (17.8) n (%) of patients"}, {"measurement": "Treatment‐related AE: Dry skin", "setting": "[2]; any grade, n = 45", "result": "4 (8.9) n (%) of patients"}, {"measurement": "Treatment‐related AE: Fatigue", "setting": "[2]; any grade, n = 45", "result": "4 (8.9) n (%) of patients"}, {"measurement": "Treatment‐related AE: Headache", "setting": "[2]; any grade, n = 45", "result": "3 (6.7) n (%) of patients"}, {"measurement": "Treatment‐related AE: Hypoalbuminaemia", "setting": "[2]; any grade, n = 45", "result": "4 (8.9) n (%) of patients"}, {"measurement": "Treatment‐related AE: Malaise", "setting": "[2]; any grade, n = 45", "result": "3 (6.7) n (%) of patients"}, {"measurement": "Treatment‐related AE: Nausea", "setting": "[2]; any grade, n = 45", "result": "16 (35.6) n (%) of patients"}, {"measurement": "Treatment‐related AE: Oedema peripheral", "setting": "[2]; any grade, n = 45", "result": "14 (31.1) n (%) of patients"}, {"measurement": "Treatment‐related AE: Pyrexia", "setting": "[2]; any grade, n = 45", "result": "7 (15.6) n (%) of patients"}, {"measurement": "Treatment‐related AE: Rash", "setting": "[2]; any grade, n = 45", "result": "5 (11.1) n (%) of patients"}, {"measurement": "Treatment‐related AE: Vomiting", "setting": "[2]; any grade, n = 45", "result": "12 (26.7) n (%) of patients"}, {"measurement": "Any treatment‐related AE", "setting": "[2]; any grade, n = 45, Table 5", "result": "44 (97.8) n (%) of patients"}, {"measurement": "Treatment‐related AE (investigations): ALT increased", "setting": "[2]; grade 3/4, n = 45", "result": "2 (4.4) n (%) of patients"}, {"measurement": "Treatment‐related AE (investigations): AST increased", "setting": "[2]; grade 3/4, n = 45", "result": "2 (4.4) n (%) of patients"}, {"measurement": "Treatment‐related AE (investigations): Amylase increased", "setting": "[2]; grade 3/4, n = 45", "result": "2 (4.4) n (%) of patients"}, {"measurement": "Treatment‐related AE (investigations): Blood ALP increased", "setting": "[2]; grade 3/4, n = 45", "result": "0 n (%) of patients"}, {"measurement": "Treatment‐related AE (investigations): Blood creatinine increased", "setting": "[2]; grade 3/4, n = 45", "result": "0 n (%) of patients"}]}]}
